{"source": "patent US9738677B2", "about": "“Amphotericin B derivative with reduced toxicity” (priority 2014, dated 2017)", "key": {"[1]": {"system": "S. cerevisiae", "experiment": "Broth microdilution MIC assay", "format": "cell-based", "conditions": "Saccharomyces cerevisiae, 24 hours, 30° C., no visible growth", "method": "(§1) Exemplary methods for antifungal activity assays are as follows:\nS. cerevisiae was maintained with yeast peptone dextrose (YPD) growth media consisting of 10 g/L yeast extract, 20 g/L peptone, 20 g/L dextrose, and 20 g/L agar for solid media. The media was sterilized by autoclaving at 250° F. for 30 min. Dextrose was subsequently added as a sterile 40% w/v solution in water (dextrose solutions were filter sterilized). Solid media was prepared by pouring sterile media containing agar (20 g/L) onto Corning (Corning, N.Y.) 100×20 mm polystyrene plates. Liquid cultures were incubated at 30° C. on a rotary shaker and solid cultures were maintained at 30° C. in an incubator.\nThe protocol for the broth microdilution assay was adapted from the Clinical and Laboratory Standards Institute document M27-A2. Clinical and Laboratory Standards Institute. Reference Method for Broth Dilution Antifungal Susceptibility Testing, M27-A2, Approved Standard 2nd Ed. Vol. 22, Number 15, 2002. 50 mL of YPD media was inoculated and incubated overnight at either 30° C. (S. cerevisiae) or 37° C. (C. albicans) in a shaker incubator. The cell suspension was then diluted with YPD to an OD600 of 0.10 (˜5×10^5 cfu/mL) as measured by a Shimadzu (Kyoto, Japan) PharmaSpec UV-1700 UV/Vis spectrophotometer. […]"}, "[2]": {"system": "primary human renal proximal tubule epithelial cells", "experiment": "WST-8 cell proliferation assay (MTC)", "format": "cell-based", "conditions": "up to limits of solubility", "method": "WST-8 Cell Proliferation Assays\nPrimary human renal proximal tubule epithelial cells (RPTECs) were purchased from ATCC (Manassas, Va.) and immediately cultured upon receipt. Complete growth media was prepared using renal epithelial cell basal medium (ATCC, PCS-400-030), renal epithelial cell growth kit (ATCC, PCS-400-040), and penicillin-streptomycin (10 units/mL and 10 μg/mL). Complete media was stored at 4° C. in the dark and used within 28 days. Primary RPTECs were grown in CO2 incubator at 37° C. with an atmosphere of 95% air/5% CO2.\nWST-8 cell proliferation assay kit (Ser. No. 10/010,199) was purchased from Cayman Chemical Company (Ann Arbor, Mich.) and stored at −20° C. and used within 6 months of receipt. WST-8 reagent and electron mediator solution were thawed and mixed to prepare the WST-8 reagent solution. The solution was stored at −20° C. and used within one week.\nA suspension of primary RPTECs in complete growth media was brought to a concentration of 1×10^5 cells/mL. A 96-well plate was seeded with 99 μL of the cell suspension and incubated at 37° C. with an atmosphere of 95% air/5% CO2 for 3 hours. Positive and negative controls were prepared by seeding with 100 μL of the cell suspension or 100 μL of the complete media. Compounds were prepared as 5 mM (AmB), 20 mM (C2′deOAmB), and 50 mM (C2′epiAmB) stock solutions in DMSO and serially diluted to the following concentrations with DMSO: 50000, 40000, 30000, 20000, 10000, 8000, 6000, 4000, 3000, 2000, 1500, 1000, 800, 600, 400, 300, 200, 100, 50, 25, 10, 5, 2.5, 1, 0.5, 0.25, and 0.1 μM. 1 μL aliquots of each solution were added to the 96-well plate in triplicate, with each column representing a different concentration of the test compound. The 96-well plate was incubated at 37° C. with an atmosphere of 95% air/5% CO2 for 24 hours. […] Following incubation, the 96-well plate was mixed in a shaking incubator at 200 rpm for 1 minute and absorbances were read at 450 nm using a Biotek H1 Synergy Hybrid Reader (Wanooski, Vt.). […]"}, "[3]": {"system": "C. albicans", "experiment": "Mouse model of disseminated candidiasis, kidney fungal burden", "format": "in vivo", "conditions": "neutropenic mice, single intraperitoneal 16 mg/kg 2 hours post infection, kidneys at 24 hours post infection", "method": "FIG. 7 is a bar graph depicting kidney fungal load (colony forming units, CFUs) in neutropenic mice inoculated intravenously with C. albicans, and then treated two hours later with a single intraperitoneal dose of vehicle or 16 mg/kg AmB or C2′epiAmB.\nThe antifungal efficacy of C2′epiAmB was tested in a mouse model of disseminated candidiasis. In this experiment neutropenic mice were infected with C. albicans via their tail veins, and then 2 hours post infection the mice were treated with a single intraperitoneal injection of 16 mg/kg AmB or C2′epiAmB. Then at 24 hours post infection the mice were sacrificed, and the fungal burden present in their kidneys was quantified."}, "[4]": {"system": "healthy mice", "experiment": "Acute toxicity, single intravenous administration, lethality", "format": "in vivo, mouse", "method": "FIG. 8 is a graph depicting lethality in healthy mice resulting from single intravenous administrations in the doses indicated of AmB or C2′epiAmB.\nIn a separate experiment, acute toxicity was determined by single intravenous administration of AmB or C2′epiAmB to healthy mice, followed by monitoring for lethality."}, "[5]": {"system": "C. albicans", "experiment": "Broth microdilution MIC assay", "format": "cell-based", "conditions": "Candida albicans, 24 hours, 37° C., no visible growth", "method": "as §1\nC. albicans was cultured in a similar manner to S. cerevisiae except both liquid and solid cultures were incubated at 37° C.\nThe protocol for the broth microdilution assay was adapted from the Clinical and Laboratory Standards Institute document M27-A2. Clinical and Laboratory Standards Institute. Reference Method for Broth Dilution Antifungal Susceptibility Testing, M27-A2, Approved Standard 2nd Ed. Vol. 22, Number 15, 2002. 50 mL of YPD media was inoculated and incubated overnight at either 30° C. (S. cerevisiae) or 37° C. (C. albicans) in a shaker incubator. The cell suspension was then diluted with YPD to an OD600 of 0.10 (˜5×10^5 cfu/mL) as measured by a Shimadzu (Kyoto, Japan) PharmaSpec UV-1700 UV/Vis spectrophotometer. The solution was diluted 10-fold with YPD, and 195 μL aliquots of the dilute cell suspension were added to sterile Falcon (Franklin Lakes, N.J.) Microtest 96-well plates in triplicate. Compounds were prepared either as […] (AmB, C2′deOAmB) or 2 mM (AmdeB) stock solutions in DMSO and serially diluted to the following concentrations with DMSO: 1600, 1200, 800, 400, 320, 240, 200, 160, 120, 80, 40, 20, 10 and 5 μM. 5 μL aliquots of each solution were added to the 96-well plate in triplicate, with each column representing a different concentration of the test compound. […]"}}, "note": "Entries after “also recorded” stand apart in the source; their conditions may differ.", "data": [{"smiles": "C[C@@H]1[C@H](O)[C@@H](C)/C=C/C=C/C=C/C=C/C=C/C=C/C=C/[C@H](O[C@@H]2O[C@H](C)[C@@H](O)[C@H](N)[C@H]2O)CC2O[C@](O)(C[C@@H](O)C[C@@H](O)[C@H](O)CC[C@@H](O)C[C@@H](O)CC(=O)O[C@H]1C)C[C@H](O)[C@H]2C(=O)O", "note": "[C2′epiAmB]", "values": [{"measurement": "MIC", "setting": "[1]", "value": 2, "unit": "µM"}, {"measurement": "Toxicity to primary human renal proximal tubule epithelial cells (in words)", "setting": "[2]", "value": "no evidence of toxicity up to their limits of solubility"}, {"measurement": "Reduction of kidney fungal burden relative to AmB", "setting": "[3]", "value": 0.5, "unit": "log units"}, {"measurement": "Lethality", "setting": "[4]; healthy mice, single intravenous doses up to 16 mg/kg", "value": "no deaths observed"}, {"measurement": "Acute toxicity compared to AmB (in words)", "setting": "[4]; mice", "value": "significantly less toxic; also recorded: substantially less toxic to mice"}, {"measurement": "MIC", "setting": "[5]", "value": 2, "unit": "µM"}]}]}
